Test results reported in PMC8881610 (Nature Communications, 2022).

Columns and labels:
GLP-1R [1] = target: GLP-1R (Homo sapiens, UniProt P43220, W214A); assay: Whole-cell binding assay, competition with 125I-GLP-1(7-36)NH2; set-up: Flag; expressed in transfected cells; settings: GLP-1R W214A; CHO-K1
Protocol: (§1) Human embryonic kidney 293 cells containing SV40 large T-antigen (HEK293T) were cultured in DMEM (Gibco) supplemented with 10% (v/v) fetal bovine serum (FBS, Gibco), 1 mM sodium pyruvate (Gibco) and 100 units/mL penicillin and 100 μg/mL streptomycin at 37 °C in 5% CO2. Chinese hamster ovary (CHO-K1) cells were cultured in F-12 (Gibco) containing 10% FBS, 100 units/mL penicillin and 100 μg/mL streptomycin at 37 °C in 5% CO2. For cAMP and receptor expression assays, HEK293T cells were seeded into 6-well cell culture plates at a density of 7 × 10^5 cells per well. After overnight incubation, cells were transfected with GIPR, GLP-1R or GCGR construct using Lipofectamine 2000 or Lipofectamine 3000 transfection reagent (Invitrogen). For whole-cell binding assay, CHO-K1 cells were seeded into 96-well fibronectin-treated cell culture plates at a density of 3 × 10^4 cells per well. After overnight incubation, cells were transfected with GIPR, GLP-1R or GCGR construct using Lipofectamine 2000 transfection reagent (Invitrogen). Following 24 h culturing, the transfected cells were ready for use.
(§2) For GLP-1R and GCGR, CHO-K1 cells (30,000 cells/well) were seeded into Isoplate-96 plates and incubated for 24 h at 37 °C in 5% CO2. The WT or mutant constructs were transiently transfected using Lipofectamine 2000 transfection reagent as previous described. They were then washed twice using F-12 with 0.1% BSA or 0.1% casein, 33 mM HEPES, and incubated for 2 h at 37 °C. […] Cells were washed three times with ice-cold PBS and lysed in PBS with 1% Triton X-100, 20 mM Tris-HCl. After addition of scintillation cocktail (PerkinElmer), radioactivity (CPM) was counted on a MicroBeta^2 microplate counter (PerkinElmer). Data were normalized to the WT response and analyzed using three-parameter logistic equation.

GLP-1R [2] = target: GLP-1R (Homo sapiens, UniProt P43220, Y148A); assay: as above; set-up: Flag; expressed in transfected cells; settings: GLP-1R Y148A; CHO-K1
GLP-1R (Homo sapiens, UniProt P43220, Y148A), sequence (P43220 24-463 Y148A): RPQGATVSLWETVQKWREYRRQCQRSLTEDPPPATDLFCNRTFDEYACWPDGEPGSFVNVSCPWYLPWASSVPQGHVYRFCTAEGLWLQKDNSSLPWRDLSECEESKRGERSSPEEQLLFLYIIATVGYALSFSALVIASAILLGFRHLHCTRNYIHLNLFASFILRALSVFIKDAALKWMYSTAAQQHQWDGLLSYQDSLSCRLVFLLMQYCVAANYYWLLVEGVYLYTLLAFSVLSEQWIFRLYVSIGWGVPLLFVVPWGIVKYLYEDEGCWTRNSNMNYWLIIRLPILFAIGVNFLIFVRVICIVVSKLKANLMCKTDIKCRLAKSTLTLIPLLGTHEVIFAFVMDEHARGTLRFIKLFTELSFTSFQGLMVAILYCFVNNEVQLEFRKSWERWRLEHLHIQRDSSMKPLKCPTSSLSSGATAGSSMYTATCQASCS
Protocol: as §1, §2

GIPR = target: T1, GIPR (Homo sapiens, UniProt P48546); assay: β-arrestin 2 recruitment (BRET); type: cell-based; set-up: expressed in transfected cells; host or cells: HEK293T; settings: GIPR WT, HEK293T; for Emax: HEK-293T
T1 sequence (P48546 22-466): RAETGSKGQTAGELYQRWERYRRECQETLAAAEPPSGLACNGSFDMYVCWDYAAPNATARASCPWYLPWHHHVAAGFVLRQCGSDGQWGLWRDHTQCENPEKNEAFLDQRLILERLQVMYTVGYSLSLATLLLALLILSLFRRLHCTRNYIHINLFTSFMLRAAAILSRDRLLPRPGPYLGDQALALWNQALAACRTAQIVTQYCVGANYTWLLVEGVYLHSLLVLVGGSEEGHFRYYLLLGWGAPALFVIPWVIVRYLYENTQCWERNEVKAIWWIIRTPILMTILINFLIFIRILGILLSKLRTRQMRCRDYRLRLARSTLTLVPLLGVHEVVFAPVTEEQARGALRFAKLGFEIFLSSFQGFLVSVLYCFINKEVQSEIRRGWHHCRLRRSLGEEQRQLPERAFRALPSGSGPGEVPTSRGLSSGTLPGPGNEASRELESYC
Protocol: After cells were grown for 24 h, transiently transfected cells were then seeded onto poly-D-lysine coated 96-well culture plates (50,000 cells/well) in DMEM with 10% FBS. Cells were grown for 20 h before incubation in assay buffer (HBSS supplemented with 10 mM HEPES, 0.1% BSA or 0.1% casein, pH 7.4) for 30 min at 37 °C. Coelentrazine-h (Yeasen Biotech) was added to a final concentration of 5 μM for 5 min before bioluminescence resonance energy transfer (BRET) readings were made using an EnVision plate reader (PerkinElmer). BRET baseline measurements were collected for 15 cycles prior to ligand addition. After which, BRET was measured for 55 cycles.

GLP-1R (Homo sapiens, UniProt P43220, W214A), sequence (P43220 24-463 W214A): as the sequence (P43220 24-463 Y148A) above, with A125Y, W191A counted along it

`CC[C@H](C)[C@H](NC(=O)[C@H](CC(C)C)NC(=O)[C@H](Cc1c[nH]c2ccccc12)NC(=O)[C@H](CCC(N)=O)NC(=O)[C@@H](NC(=O)[C@H](Cc1ccccc1)NC(=O)[C@H](C)NC(=O)[C@H](CCCCNC(=O)COCCOCCNC(=O)COCCOCCNC(=O)CC[C@H](NC(=O)CCCCCCCCCCCCCCCCCCC(=O)O)C(=O)O)NC(=O)[C@H](CCC(N)=O)NC(=O)[C@H](C)NC(=O)[C@@H](NC(=O)[C@H](CCCCN)NC(=O)[C@H](CC(=O)O)NC(=O)[C@H](CC(C)C)NC(=O)C(C)(C)NC(=O)[C@@H](NC(=O)[C@H](CO)NC(=O)[C@H](Cc1ccc(O)cc1)NC(=O)[C@H](CC(=O)O)NC(=O)[C@H](CO)NC(=O)[C@@H](NC(=O)[C@H](Cc1ccccc1)NC(=O)[C@@H](NC(=O)CNC(=O)[C@H](CCC(=O)O)NC(=O)C(C)(C)NC(=O)[C@@H](N)Cc1ccc(O)cc1)[C@@H](C)O)[C@@H](C)O)[C@@H](C)CC)[C@@H](C)CC)C(C)C)C(=O)N[C@@H](C)C(=O)NCC(=O)NCC(=O)N1CCC[C@H]1C(=O)N[C@@H](CO)C(=O)N[C@@H](CO)C(=O)NCC(=O)N[C@@H](C)C(=O)N1CCC[C@H]1C(=O)N1CCC[C@H]1C(=O)N1CCC[C@H]1C(=O)N[C@@H](CO)C(N)=O` [Tirzepatide] was tested, and the “binding Span” value (GLP-1R [1]) was 11.88 ± 1.32 % WT, the “binding Span” value (GLP-1R [2]) was 12.31 ± 2.51 % WT and the EC50 (GIPR; 0.1% casein, read-out: β-arrestin 2 recruitment pEC50 (converted)) was 0.0186 µM. The Emax (GIPR; 0.1% BSA) was 53.4 ± 2.32% and the Emax (GIPR; 0.1% casein) was 53.4 ± 1.93%.
